From ChEMBL document CHEMBL1150977, “A quantitative analysis of kinase inhibitor selectivity” (Nat Biotechnol, 2008) come the findings set out here.

The target in assay [1] is Insulin receptor (Homo sapiens, UniProt P06213).
The target in assay [2] is Dual specificity protein kinase CLK3 (Homo sapiens, UniProt P49761).
The target of assay [3] is T1, Dual specificity mitogen-activated protein kinase kinase 3 (Homo sapiens, UniProt P46734).
T1 sequence (P46734 whole entry): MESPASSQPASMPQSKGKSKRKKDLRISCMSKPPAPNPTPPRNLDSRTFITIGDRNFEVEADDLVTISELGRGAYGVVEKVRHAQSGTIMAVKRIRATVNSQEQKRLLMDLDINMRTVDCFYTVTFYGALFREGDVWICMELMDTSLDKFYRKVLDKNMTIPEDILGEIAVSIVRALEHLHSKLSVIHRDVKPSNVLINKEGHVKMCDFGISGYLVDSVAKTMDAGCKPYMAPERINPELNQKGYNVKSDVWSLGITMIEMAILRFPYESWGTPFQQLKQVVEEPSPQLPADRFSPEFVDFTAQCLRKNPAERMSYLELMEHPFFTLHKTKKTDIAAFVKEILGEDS

Assay [4] deals with Serine/threonine-protein kinase 38-like (Homo sapiens, UniProt Q9Y2H1).
Sequence of Serine/threonine-protein kinase 38-like (Q9Y2H1 whole entry): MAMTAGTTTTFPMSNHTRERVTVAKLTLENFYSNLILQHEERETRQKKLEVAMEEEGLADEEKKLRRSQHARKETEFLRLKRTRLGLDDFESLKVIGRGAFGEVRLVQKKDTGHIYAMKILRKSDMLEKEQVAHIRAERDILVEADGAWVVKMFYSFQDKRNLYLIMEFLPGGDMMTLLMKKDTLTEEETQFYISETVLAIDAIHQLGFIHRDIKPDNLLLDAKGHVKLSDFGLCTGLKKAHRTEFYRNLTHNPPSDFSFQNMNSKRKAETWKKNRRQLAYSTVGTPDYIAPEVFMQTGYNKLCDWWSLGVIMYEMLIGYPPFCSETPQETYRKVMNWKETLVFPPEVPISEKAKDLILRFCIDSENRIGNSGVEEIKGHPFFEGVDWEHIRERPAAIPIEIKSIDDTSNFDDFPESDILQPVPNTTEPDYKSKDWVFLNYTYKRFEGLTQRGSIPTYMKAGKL
Assay [5] concerns the target T2, Serine/threonine-protein kinase Nek9 (Homo sapiens, UniProt Q8TD19).
T2 sequence (Q8TD19 whole entry): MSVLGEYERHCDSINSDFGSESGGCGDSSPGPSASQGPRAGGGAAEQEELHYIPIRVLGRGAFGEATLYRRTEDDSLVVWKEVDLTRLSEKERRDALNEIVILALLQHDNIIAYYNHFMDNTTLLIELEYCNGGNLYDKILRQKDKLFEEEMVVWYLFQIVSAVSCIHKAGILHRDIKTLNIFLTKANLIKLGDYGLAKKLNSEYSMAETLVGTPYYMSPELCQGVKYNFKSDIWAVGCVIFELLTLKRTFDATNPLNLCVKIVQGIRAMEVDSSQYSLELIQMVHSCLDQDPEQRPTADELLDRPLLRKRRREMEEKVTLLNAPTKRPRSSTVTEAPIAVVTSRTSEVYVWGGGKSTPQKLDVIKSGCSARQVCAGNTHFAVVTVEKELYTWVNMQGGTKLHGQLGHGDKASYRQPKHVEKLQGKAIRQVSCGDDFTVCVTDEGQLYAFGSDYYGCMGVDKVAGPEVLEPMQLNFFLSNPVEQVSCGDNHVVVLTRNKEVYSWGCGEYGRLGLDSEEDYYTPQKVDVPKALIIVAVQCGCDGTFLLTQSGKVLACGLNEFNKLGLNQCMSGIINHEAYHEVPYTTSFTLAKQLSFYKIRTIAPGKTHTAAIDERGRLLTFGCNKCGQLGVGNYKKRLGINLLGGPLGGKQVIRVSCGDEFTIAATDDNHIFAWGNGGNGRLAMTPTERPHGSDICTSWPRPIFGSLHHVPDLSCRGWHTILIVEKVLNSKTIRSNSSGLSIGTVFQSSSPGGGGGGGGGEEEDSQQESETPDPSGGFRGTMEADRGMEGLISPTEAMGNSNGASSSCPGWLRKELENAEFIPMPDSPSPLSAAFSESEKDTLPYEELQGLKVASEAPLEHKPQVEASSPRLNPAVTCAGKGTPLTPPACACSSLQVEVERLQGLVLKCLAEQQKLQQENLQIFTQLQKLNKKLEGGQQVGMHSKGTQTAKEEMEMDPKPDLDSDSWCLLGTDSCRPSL

Assay [6] has as its target T3, Ephrin type-A receptor 1 (Homo sapiens, UniProt P21709).
T3 sequence (P21709 whole entry): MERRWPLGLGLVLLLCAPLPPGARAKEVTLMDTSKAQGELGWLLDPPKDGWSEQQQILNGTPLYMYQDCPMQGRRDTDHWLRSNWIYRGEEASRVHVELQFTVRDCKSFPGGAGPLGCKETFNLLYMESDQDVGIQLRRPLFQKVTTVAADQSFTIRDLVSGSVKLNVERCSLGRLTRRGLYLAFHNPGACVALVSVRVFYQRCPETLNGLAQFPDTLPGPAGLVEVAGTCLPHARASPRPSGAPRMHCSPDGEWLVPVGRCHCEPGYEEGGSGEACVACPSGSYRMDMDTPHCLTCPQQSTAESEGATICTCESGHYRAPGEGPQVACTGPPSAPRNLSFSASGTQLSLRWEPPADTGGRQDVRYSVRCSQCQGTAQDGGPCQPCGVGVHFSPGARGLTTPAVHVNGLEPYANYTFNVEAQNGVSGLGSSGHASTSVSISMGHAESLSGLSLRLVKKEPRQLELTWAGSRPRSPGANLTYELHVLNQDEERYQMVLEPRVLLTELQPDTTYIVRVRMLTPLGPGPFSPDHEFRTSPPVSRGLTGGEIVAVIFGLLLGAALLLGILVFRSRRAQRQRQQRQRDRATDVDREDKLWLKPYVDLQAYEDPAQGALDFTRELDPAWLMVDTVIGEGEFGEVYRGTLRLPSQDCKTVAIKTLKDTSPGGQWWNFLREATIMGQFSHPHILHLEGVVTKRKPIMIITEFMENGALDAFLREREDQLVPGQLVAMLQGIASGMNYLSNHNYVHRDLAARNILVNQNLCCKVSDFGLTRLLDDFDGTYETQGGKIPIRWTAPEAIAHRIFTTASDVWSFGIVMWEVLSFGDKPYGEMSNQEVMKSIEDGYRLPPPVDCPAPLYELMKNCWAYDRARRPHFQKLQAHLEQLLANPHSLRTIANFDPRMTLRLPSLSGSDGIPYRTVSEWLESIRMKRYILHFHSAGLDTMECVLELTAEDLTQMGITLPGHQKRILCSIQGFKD

Assay [7] addresses Non-receptor tyrosine-protein kinase TYK2 (Homo sapiens, UniProt P29597).
The target in assay [8] is Glycogen synthase kinase-3 alpha (Homo sapiens, UniProt P49840).
Sequence of Glycogen synthase kinase-3 alpha (P49840 whole entry): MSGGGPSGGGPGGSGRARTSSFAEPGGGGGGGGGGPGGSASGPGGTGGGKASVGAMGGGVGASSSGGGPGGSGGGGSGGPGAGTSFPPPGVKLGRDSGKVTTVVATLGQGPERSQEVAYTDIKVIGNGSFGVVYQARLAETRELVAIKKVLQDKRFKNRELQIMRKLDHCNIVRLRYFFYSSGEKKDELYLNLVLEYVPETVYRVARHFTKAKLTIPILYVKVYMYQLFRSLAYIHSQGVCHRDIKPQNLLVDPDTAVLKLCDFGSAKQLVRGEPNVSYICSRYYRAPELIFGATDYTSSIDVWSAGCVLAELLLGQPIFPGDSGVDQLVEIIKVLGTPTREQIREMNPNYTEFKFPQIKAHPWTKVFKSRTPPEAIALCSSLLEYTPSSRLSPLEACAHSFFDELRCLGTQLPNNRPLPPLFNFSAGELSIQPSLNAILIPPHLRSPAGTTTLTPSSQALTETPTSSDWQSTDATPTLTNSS
Assay [9] addresses Serine/threonine-protein kinase Nek6 (Homo sapiens, UniProt Q9HC98).

Sequence of Dual specificity protein kinase CLK3 (P49761 whole entry): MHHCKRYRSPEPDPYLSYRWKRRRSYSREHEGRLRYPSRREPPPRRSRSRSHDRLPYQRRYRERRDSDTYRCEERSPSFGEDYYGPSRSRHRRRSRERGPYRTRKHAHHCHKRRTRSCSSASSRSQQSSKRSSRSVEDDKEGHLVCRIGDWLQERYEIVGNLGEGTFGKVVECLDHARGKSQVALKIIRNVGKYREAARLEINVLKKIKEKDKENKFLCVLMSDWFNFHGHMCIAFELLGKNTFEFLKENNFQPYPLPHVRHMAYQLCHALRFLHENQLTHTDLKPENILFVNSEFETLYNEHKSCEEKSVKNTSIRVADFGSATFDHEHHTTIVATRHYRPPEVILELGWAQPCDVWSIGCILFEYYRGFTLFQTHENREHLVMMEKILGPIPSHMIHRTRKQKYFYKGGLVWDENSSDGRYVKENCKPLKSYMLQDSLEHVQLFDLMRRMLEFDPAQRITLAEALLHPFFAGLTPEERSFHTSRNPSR
Sequence of Non-receptor tyrosine-protein kinase TYK2 (P29597 whole entry): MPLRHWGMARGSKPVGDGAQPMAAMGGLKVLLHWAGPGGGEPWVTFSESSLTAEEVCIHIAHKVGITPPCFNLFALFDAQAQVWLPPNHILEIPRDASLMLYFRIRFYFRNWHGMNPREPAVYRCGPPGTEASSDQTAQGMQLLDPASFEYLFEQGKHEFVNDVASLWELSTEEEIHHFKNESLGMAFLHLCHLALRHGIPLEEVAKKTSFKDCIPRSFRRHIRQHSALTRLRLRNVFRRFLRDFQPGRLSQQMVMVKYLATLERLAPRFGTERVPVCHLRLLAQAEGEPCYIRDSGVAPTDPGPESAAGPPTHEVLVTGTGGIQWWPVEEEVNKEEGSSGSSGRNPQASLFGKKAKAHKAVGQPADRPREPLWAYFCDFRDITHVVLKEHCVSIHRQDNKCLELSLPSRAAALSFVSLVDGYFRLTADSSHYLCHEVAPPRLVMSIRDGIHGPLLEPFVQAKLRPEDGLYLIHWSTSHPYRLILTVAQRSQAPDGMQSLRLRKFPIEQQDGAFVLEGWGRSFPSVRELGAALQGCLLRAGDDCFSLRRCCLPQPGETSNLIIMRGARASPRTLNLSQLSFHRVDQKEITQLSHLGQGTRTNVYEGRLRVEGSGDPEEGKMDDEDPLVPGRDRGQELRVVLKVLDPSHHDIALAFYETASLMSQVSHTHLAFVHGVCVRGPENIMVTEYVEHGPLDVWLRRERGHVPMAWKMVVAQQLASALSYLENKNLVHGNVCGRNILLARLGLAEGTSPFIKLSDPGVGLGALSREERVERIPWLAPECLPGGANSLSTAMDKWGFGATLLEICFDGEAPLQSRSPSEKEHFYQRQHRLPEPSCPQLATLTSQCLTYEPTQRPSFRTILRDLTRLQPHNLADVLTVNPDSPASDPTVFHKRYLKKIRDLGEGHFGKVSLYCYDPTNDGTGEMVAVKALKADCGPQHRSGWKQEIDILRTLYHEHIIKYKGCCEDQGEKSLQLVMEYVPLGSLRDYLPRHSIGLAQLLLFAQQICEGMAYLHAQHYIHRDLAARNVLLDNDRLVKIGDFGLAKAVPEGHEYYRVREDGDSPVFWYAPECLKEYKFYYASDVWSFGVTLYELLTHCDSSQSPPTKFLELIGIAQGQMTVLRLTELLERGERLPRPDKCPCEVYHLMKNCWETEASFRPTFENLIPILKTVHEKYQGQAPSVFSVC
Sequence of Insulin receptor (P06213 28-758 limits assumed): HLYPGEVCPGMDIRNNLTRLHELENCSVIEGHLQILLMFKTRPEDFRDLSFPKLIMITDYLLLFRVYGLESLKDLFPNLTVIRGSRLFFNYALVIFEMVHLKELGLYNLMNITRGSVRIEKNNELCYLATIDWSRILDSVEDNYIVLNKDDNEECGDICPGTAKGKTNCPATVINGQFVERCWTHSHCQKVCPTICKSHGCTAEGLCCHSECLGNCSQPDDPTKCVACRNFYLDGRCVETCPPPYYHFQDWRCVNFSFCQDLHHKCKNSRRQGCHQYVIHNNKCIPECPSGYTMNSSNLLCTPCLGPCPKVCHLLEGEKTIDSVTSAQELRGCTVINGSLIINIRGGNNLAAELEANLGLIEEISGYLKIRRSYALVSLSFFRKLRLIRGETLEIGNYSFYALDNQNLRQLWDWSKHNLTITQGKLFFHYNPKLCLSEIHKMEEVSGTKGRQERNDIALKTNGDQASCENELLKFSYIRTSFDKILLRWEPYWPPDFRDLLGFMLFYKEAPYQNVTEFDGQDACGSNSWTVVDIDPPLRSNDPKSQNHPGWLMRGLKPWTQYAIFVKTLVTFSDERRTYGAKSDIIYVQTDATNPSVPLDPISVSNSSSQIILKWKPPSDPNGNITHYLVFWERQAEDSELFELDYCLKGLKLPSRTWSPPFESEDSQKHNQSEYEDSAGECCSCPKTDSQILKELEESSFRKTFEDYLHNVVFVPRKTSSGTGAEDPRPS
Sequence of Insulin receptor (P06213 763-1382 limits assumed): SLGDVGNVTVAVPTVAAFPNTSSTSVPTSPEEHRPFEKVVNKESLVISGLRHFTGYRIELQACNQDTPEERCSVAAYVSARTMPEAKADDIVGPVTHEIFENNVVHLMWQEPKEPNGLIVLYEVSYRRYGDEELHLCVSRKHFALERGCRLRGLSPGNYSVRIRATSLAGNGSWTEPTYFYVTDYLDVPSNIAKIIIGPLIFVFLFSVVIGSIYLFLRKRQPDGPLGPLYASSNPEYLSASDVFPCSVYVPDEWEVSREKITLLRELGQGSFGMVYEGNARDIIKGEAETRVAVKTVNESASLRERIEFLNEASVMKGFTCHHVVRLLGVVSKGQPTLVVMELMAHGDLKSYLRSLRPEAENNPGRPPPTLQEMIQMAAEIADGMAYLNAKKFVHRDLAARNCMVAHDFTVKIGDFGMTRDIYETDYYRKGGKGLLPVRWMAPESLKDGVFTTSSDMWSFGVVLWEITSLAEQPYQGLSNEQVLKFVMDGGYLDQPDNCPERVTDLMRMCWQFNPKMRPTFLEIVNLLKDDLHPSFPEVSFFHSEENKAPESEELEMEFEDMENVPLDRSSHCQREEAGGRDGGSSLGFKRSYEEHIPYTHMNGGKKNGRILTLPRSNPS
Sequence of Serine/threonine-protein kinase Nek6 (Q9HC98 whole entry): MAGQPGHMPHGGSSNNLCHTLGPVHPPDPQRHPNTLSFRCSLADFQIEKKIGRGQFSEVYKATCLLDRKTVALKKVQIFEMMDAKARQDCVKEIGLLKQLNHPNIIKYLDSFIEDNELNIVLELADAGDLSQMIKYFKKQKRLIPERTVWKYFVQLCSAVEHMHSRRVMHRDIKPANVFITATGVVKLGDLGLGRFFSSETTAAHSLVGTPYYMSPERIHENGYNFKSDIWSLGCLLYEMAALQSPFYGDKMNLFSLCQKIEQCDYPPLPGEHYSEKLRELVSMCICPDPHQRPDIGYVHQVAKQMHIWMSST

Take `CCN1CCN(Cc2ccc(NC(=O)Nc3ccc(Oc4cc(NC)ncn4)cc3)cc2C(F)(F)F)CC1` [AST-487]: the Kd in [1], in assay [2], in assay [3], in assay [4], in [5] and in [6] was over 10 µM each time. Moreover, the Kd (usually the concentration at which binding is half-saturated) was 2.1 µM in [7], over 10 µM in assay [8] and over 10 µM in assay [9].

Turning to `COCC(=O)NC/C=C/c1ccc2ncnc(Nc3ccc(Oc4ccc(C)nc4)c(C)c3)c2c1` [CP-724714], the Kd in [1], in [2], in [3], in assay [4], in assay [5] and in [6] was over 10 µM in each case. Further, the Kd in assay [7], in assay [8] and in [9] was over 10 µM in each case.

In the case of `Nc1nc(Nc2ccc(S(N)(=O)=O)cc2)nn1C(=O)c1c(F)cccc1F` [JNJ-7706621], the Kd in [1] is over 10 µM; in assay [2], 0.31 µM; in assay [3], 1.5 µM; in [4], over 10 µM; in assay [5], over 10 µM; in assay [6] it was over 10 µM. In addition, the Kd in assay [7] was 0.032 µM; in assay [8], 0.16 µM; in assay [9], over 10 µM.

On to `CCOc1cc2ncc(C#N)c(Nc3ccc(F)c(Cl)c3)c2cc1NC(=O)/C=C/CN(C)C` [PELITINIB], for which the Kd in assay [1] was over 10 µM; in assay [2] it was 5.6 µM; in [3], over 10 µM; in assay [4] it was over 10 µM; in [5], over 10 µM; in assay [6] it was over 10 µM. Moreover, the Kd in assay [7], in assay [8] and in assay [9] was over 10 µM in each case.

On to `Oc1ccc(-c2nc(-c3ccncc3)c(-c3ccc(F)cc3)[nH]2)cc1` [SB-202190], for which the Kd in assay [1], in assay [2], in assay [3], in [4], in [5] and in assay [6] was over 10 µM in each case. Also, the Kd in [7], in [8] and in assay [9] was over 10 µM in each case.

With `NC(=O)c1ccc(-c2nc(-c3ccc4c(c3)OCO4)c(-c3ccccn3)[nH]2)cc1` [SB-431542], the Kd in [1], in assay [2], in [3], in [4], in assay [5] and in assay [6] was over 10 µM each time. For the same compound, the Kd in [7], in assay [8] and in assay [9] was over 10 µM in each case.
